Test results as given in patent US8575193B2, “N-substituted tetrahydroisoquinoline/isoindoline hydroxamic acid compounds” (4SC AG, priority 2008, dated 2013).
Structures can show the parent of a compound that is named as a salt.

Key:
[1] = Cellular cytotoxicity assay (Alamar Blue/Resazurin), A549; format: cell-based; settings: human, A549 cells; A549, 72 hours incubation, Resazurin; read-out: A549 Cytotoxicity [pIC50] (converted)
Protocol: (§1) The anti-proliferative activity of the compounds as described herein, is evaluated with various solid and hematological cancer cell lines using the Alamar Blue (Resazurin) cell viability assay (O'Brien et al, Eur J Biochem 267, 5421-5426, 2000). Resazurin is reduced to the fluorescent resorufin by cellular dehydrogenase activity, correlating with viable, proliferating cells. Test compounds are dissolved as 20 mM solutions in dimethylsulfoxide (DMSO) and subsequently diluted in semi-logarithmic steps. The cancer cell lines are seeded into 96 well flat bottom plates at respective cell densities in a volume of 200 μl per well to allow continuous proliferation during the experiment. 24 hours after seeding 1 μl each of the compound dilutions is added into each well of the 96 well plate. Wells containing untreated control cells are filled with 200 μl DMEM medium containing 0.5% v:v DMSO. The cells are then incubated with the substances for 72 hours at 37° C. in a humidified atmosphere containing 5% carbon dioxide. To determine the viability of the cells, 20 μl of a Resazurin solution (Sigma; 90 mg/l) are added. After 4 hours incubation at 37° C. the fluorescence is measured at an extinction of 544 nm and an emission of 590 nm. For the calculation of the cell viability the emission value from untreated cells is set as 100% viability and the emission rates of treated cells are set in relation to the values of untreated cells. Viabilities are expressed as % values. The corresponding pIC50 values of the compounds for cytotoxic activity are determined from the concentration-effect curves by means of non-linear regression.

rHDAC1 = biological target: T1, rHDAC1 (Homo sapiens, UniProt Q13547); assay: rHDAC1 enzymatic assay (recombinant FLAG-HDAC1); format: biochemical; settings: FLAG-HDAC1 from HEK293; 6 μM Ac-NH-GGK(Ac)-AMC, 3 h at 30° C.; read-out: rHDAC1 [pIC50] (converted)
T1 construct: FLAG; made in house
T1 sequence (Q13547 whole entry): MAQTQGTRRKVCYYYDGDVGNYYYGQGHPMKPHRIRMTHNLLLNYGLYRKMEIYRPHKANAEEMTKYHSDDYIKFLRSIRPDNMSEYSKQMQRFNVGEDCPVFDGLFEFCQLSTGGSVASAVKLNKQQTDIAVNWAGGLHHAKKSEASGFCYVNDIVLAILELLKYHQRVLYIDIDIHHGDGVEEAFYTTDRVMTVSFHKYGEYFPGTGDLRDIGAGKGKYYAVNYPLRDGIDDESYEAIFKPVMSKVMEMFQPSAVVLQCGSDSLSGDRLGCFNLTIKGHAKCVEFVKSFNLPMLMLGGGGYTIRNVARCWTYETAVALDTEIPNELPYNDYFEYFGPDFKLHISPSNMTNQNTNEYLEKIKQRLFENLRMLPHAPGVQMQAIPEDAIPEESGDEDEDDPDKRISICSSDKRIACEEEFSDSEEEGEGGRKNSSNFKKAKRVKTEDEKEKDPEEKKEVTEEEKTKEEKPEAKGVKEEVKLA
Description: (§2) Human HDAC1 and HDAC6 fused with the FLAG epitope are stably expressed in HEK293 cells while human HDAC3 and HDAC8 fused with the FLAG epitope are overexpressed in baculo-virus infected insect (Sf21) cells. To ensure stability of FLAG-HDAC3 the SMRT protein is co-expressed in the corresponding insect cells. […] FLAG-HDAC3 and FLAG-HDAC8 are also purified by M2-agarose affinity chromatography after mass cultivation of the insect cells and cell lysis.
(§3) The HDAC enzyme activity assay is done as described by Wegener et al. (Chem. & Biol. 10, 61-68, 2003). Briefly 40 μl of a 1:100 dilution (=0.4 μl) nuclear HeLa extract (mixture of class I and II HDACs), 29 μl enzyme buffer (15 mM Tris HCl pH 8.1, 0.25 mM EDTA, 250 mM NaCl, 10% v:v glycerol) and 1 μl test compound are added to a well of a 96 well microtiter plate and reaction started by addition of 3 μl substrate (Ac-NH-GGK(Ac)-AMC; final concentration 25 μM and final volume […]). […] After incubation at room temperature for further 40 min, fluorescence is measured using a Wallac Victor 1420 multilabel counter (Ex 355 nm, Em 460 nm) for quantification of AMC (7-amino-4-methylcoumarin) generated by trypsine cleavage of the deacetylated peptide. […] The corresponding pIC50 values of the compounds for HDAC inhibitory activity are determined from the concentration-effect curves by means of non-linear regression (Graphpad Prism software).
(§4) The HDAC1, HDAC3 and HDAC6 enzymatic assays are done with slight modifications with recombinant FLAG-HDAC1 and FLAG-HDAC6 proteins isolated from HEK293 cell lysates or recombinant FLAG-HDAC3 isolated from insect cells, respectively. The HDAC8 enzymatic assay using recombinant FLAG-HDAC8 isolated from insect cells is done with a different substrate. About 4.5 ng/well FLAG-HDAC1 and 3.1 ng/well FLAG-HDAC6 (dependent on batches and specific activity) are incubated with 6 μM or 10 μM Ac-NH-GGK(Ac)-AMC substrate, respectively, for 3 h at 30° C. About 1.7 ng/well FLAG-HDAC3 is incubated with 6 μM Ac-NH-GGK(Ac)-AMC substrate for 2 h at 30° C., while approximately 130 ng/well FLAG-HDAC8 is incubated with 50 μM Ac-RHK(Ac)K(Ac)-AMC substrate for 3 h at 30° C. Termination of the reaction and all further steps are done as described for HeLa cell nuclear extracts as a source for HDAC enzymatic activity. The corresponding pIC50 values of the compounds for HDAC1, HDAC3, HDAC6 and HDAC8 inhibitory activity are determined from the concentration-effect curves by means of non-linear regression.

[2] = Cellular cytotoxicity assay (Alamar Blue/Resazurin), HeLa; format: cell-based; settings: human, HeLa cells, 72 hours incubation, Resazurin, read-out: HeLa Cytotoxicity [pIC50] (converted)
Protocol: as §1

rHDAC8 = biological target: T2, rHDAC8 (Homo sapiens, UniProt Q9BY41); assay: rHDAC8 enzymatic assay (recombinant FLAG-HDAC8); format: biochemical; settings: FLAG-HDAC8 from insect cells; 50 μM Ac-RHK(Ac)K(Ac)-AMC, 3 h at 30° C.; read-out: rHDAC8 [pIC50] (converted)
T2 construct: FLAG; made in house; host or cells: baculovirus-infected Sf21 insect cells
T2 sequence (Q9BY41 1-377): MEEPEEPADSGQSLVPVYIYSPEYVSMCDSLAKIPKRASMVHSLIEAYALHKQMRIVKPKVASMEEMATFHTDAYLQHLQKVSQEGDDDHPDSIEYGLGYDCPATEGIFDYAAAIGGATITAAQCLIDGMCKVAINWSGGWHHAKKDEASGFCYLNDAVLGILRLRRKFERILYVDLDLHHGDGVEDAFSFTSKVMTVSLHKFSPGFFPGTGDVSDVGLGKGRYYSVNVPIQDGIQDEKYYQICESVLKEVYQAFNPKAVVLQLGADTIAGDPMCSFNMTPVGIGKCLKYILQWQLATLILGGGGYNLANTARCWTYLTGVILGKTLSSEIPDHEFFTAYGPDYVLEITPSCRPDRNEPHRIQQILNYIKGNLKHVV
Description: as §2, §3, §4

rHDAC3 = biological target: T3, rHDAC3 (Homo sapiens, UniProt O15379); assay: rHDAC3 enzymatic assay (recombinant FLAG-HDAC3); format: biochemical; settings: FLAG-HDAC3 from insect cells; 6 μM Ac-NH-GGK(Ac)-AMC, 2 h at 30° C.; read-out: rHDAC3 [pIC50] (converted)
T3 construct: FLAG; made in house; host or cells: baculovirus-infected Sf21 insect cells
T3 sequence (O15379 whole entry): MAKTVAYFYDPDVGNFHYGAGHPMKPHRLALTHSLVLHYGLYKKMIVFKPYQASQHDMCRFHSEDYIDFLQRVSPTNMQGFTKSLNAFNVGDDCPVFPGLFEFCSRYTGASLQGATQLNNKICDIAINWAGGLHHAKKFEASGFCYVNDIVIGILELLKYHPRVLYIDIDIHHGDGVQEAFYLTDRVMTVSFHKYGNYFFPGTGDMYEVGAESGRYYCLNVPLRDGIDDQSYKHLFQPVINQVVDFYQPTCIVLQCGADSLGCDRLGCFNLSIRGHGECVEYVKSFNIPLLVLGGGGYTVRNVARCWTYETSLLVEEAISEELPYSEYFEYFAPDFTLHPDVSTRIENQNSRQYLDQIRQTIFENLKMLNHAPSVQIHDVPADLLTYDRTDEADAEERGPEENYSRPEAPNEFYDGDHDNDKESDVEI
T3 sequence (Q9Y618 whole entry partner): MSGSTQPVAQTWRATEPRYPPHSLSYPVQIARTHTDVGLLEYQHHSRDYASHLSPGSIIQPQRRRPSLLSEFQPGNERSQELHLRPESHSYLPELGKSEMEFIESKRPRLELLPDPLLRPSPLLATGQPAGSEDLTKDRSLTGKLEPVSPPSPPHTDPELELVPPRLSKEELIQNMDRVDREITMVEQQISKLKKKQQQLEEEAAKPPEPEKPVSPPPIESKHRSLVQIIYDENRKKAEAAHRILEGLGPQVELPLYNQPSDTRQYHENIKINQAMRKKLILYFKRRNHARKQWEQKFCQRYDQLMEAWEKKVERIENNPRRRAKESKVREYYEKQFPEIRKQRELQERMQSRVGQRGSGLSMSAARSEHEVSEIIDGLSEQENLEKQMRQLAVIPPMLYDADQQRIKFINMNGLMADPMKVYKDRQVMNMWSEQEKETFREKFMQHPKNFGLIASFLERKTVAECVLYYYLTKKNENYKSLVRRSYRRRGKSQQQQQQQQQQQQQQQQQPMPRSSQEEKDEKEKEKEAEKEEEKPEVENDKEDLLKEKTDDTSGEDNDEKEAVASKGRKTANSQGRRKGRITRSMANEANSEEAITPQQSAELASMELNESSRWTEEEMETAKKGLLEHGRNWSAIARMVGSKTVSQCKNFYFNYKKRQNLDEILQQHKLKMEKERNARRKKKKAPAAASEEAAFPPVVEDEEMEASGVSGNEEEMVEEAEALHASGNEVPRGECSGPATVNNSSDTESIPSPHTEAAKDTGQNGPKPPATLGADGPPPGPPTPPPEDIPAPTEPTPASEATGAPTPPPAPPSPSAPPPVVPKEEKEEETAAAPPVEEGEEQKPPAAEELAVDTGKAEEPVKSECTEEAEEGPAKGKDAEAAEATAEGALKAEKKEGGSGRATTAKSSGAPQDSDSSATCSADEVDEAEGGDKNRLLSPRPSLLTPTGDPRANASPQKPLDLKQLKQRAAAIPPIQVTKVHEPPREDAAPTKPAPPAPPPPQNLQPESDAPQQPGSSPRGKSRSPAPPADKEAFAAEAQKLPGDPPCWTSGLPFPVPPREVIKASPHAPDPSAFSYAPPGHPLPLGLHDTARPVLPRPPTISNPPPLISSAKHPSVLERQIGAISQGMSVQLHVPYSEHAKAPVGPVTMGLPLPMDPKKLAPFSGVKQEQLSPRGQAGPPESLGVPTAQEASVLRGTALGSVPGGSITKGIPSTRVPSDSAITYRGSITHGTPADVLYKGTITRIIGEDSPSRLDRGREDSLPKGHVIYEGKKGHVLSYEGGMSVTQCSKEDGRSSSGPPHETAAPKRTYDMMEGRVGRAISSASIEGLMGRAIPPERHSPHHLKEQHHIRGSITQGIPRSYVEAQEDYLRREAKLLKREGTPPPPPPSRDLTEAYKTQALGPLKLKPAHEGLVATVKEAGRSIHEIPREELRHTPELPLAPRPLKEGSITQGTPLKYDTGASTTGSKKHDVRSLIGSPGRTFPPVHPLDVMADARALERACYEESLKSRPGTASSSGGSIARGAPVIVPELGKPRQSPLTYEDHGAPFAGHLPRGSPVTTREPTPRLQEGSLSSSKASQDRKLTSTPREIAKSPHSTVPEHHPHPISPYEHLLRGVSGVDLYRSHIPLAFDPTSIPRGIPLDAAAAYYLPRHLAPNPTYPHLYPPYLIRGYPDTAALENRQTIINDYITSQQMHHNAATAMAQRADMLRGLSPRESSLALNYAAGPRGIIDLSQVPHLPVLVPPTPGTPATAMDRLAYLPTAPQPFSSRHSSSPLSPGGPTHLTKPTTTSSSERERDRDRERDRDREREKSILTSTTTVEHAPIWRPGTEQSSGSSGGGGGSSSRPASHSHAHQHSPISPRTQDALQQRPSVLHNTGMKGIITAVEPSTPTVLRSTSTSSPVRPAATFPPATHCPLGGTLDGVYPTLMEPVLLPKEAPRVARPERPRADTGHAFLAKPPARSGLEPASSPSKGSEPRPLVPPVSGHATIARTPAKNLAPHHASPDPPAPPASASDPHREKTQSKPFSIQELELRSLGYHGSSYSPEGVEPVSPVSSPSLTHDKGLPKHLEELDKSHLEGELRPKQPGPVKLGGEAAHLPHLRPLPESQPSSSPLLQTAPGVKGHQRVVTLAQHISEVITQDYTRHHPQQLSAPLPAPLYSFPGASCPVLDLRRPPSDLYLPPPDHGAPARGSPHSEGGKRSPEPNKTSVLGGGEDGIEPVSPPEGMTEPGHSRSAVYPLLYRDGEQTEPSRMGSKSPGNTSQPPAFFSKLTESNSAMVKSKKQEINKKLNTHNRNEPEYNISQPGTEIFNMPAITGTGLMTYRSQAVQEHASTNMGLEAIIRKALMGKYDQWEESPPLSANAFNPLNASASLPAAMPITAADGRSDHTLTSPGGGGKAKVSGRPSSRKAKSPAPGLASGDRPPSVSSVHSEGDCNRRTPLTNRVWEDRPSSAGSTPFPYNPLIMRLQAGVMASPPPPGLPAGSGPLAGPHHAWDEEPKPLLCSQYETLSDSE
Description: as §2, §3, §4

Row | SMILES | IC50 at 72 h [1] [µM] | IC50 (rHDAC1) [µM] | IC50 at 72 h [2] [µM] | IC50 (rHDAC8) [µM] | IC50 (rHDAC3) [µM]
1 | COCCCOC(=O)N1CCc2cc(C(=O)NO)ccc2C1 [Example 6, 3-Methoxypropyl-6-(hydroxycarbamoyl)-3,4-dihydroisoquinoline-2(1H)-carboxylate] | > 100 | 10 to 100 | > 100 | 1 to 10 | 10 to 100
2 | O=C(NO)c1ccc2c(c1)CN(C(=O)Cc1cccnc1)CC2 [Example 19, N-Hydroxy-2-(pyridin-3-ylacetyl)-1,2,3,4-tetrahydroisoquinoline-7-carboxamide hydrochloride] | > 100 | 0.1 to 10 | 1 to 100 | 0.01 to 1 | 10 to 100
3 | CC(=O)N1CCc2cc(C(=O)NO)ccc2C1 [Example 12, 2-Acetyl-N-hydroxy-1,2,3,4-tetrahydroisoquinoline-6-carboxamide] | > 100 | 10 to 100 | > 100 | 1 to 10 | 10 to 100
4 | O=C(NO)c1ccc2c(c1)CCN(C(=O)CCc1cccnc1)C2 [Example 7, N-Hydroxy-2-(3-pyridin-3-ylpropanoyl)-1,2,3,4-tetrahydroisoquinoline-6-carboxamide hydrochloride] | > 100 | 10 to 100 | > 100 | 1 to 10 | 10 to 100
5 | O=C(NO)c1ccc2c(c1)CN(C(=O)Cc1c[nH]c3ccccc13)CC2 [Example 18, N-Hydroxy-2-(1H-indol-3-ylacetyl)-1,2,3,4-tetrahydroisoquinoline-7-carboxamide] | 1 to 100 | 0.1 to 10 | 1 to 100 | 0.01 to 1 | 1 to 10
